# Test results as given in publication PMC4096222 (Journal of Medicinal Chemistry, 2014).
# Like-named read-outs stand apart in the source and are kept apart here.
# Tests used:
# A/PR/8/34 (A/H1N1) = assay type: cell-based, influenza A virus
# A/M2 wt = A/M2 wt (Influenza A virus, UniProt P0DOF5); assay type: cell-based
# A/HK/7/87 (A/H3N2) = test: microbe, parasite or virus in culture; assay type: cell-based; conditions: Influenza A virus, H3N2, MDCK, 72 h, read-out: antiviral EC50 values against A/HK/7/87 (range)
# A/HK/7/87 = assay type: cell-based, influenza A virus; conditions: for inhibition of plaque formation: at 0.5–2 μM, 72 h
# MDCK cells = conditions: for cytotoxicity MCC: minimum cytotoxic concentration, minimal alterations in cell morphology after 72 h, MDCK; for concentration at which visibly toxic: MDCK cells
# [1] = read-out: antiviral activity A/PR/8/34 EC50 (MTS)
# [2] = read-out: antiviral activity A/PR/8/34 EC50 (CPE)
# Chain of A/M2 wt (P0DOF5 whole entry, looked up): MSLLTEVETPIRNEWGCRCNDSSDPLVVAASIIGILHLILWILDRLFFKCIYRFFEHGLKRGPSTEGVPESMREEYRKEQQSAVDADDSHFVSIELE
structure (smiles),measurement,setting,value
"NC12CC3CC(CC(C3)C1)C2 [amantadine, reference compound]",EC50,A/PR/8/34 (A/H1N1); [1],34 µM
"C1=CC2C3CNCC3C1C1CC21.Cl (centres unmarked) [compound 4, 4-Azatetracyclo[5.3.2.0^2,6.0^8.10]dodec-11-ene Hydrochloride]",inhibition of wt channel,A/M2 wt,potent low-micromolar inhibitors
same,EC50,A/PR/8/34 (A/H1N1); [2],> 100 µM
same,EC50,A/PR/8/34 (A/H1N1); [1],> 100 µM
same,EC50,A/HK/7/87 (A/H3N2),3 to 8 µM
same,activity in virus yield and plaque reduction assays,A/HK/7/87,confirmed the activity
same,cytotoxicity MCC,MDCK cells,100 µM
"Cl.N=C(N)N1CC2C3C=CC(C4CC34)C2C1 (centres unmarked) [compound 5, 4-Amidino-4-azatetracyclo[5.3.2.0^2,6.0^8.10]dodec-11-ene Hydrochloride]",inhibition of wt channel,A/M2 wt,potent low-micromolar inhibitors
same,EC50,A/PR/8/34 (A/H1N1); [2],> 100 µM
same,EC50,A/PR/8/34 (A/H1N1); [1],> 100 µM
same,cytotoxicity MCC,MDCK cells,100 µM
"C1CC2C3CNCC3C1C1CC21.Cl (centres unmarked) [compound 6, 4-Azatetracyclo[5.3.2.0^2,6.0^8.10]dodecane Hydrochloride]",inhibition of wt channel,A/M2 wt,potent low-micromolar inhibitors
same,EC50,A/PR/8/34 (A/H1N1); [2],> 100 µM
same,EC50,A/PR/8/34 (A/H1N1); [1],> 100 µM
same,EC50,A/HK/7/87 (A/H3N2),3 to 8 µM
same,activity in virus yield and plaque reduction assays,A/HK/7/87,confirmed the activity
same,cytotoxicity MCC,MDCK cells,100 µM
"Cl.N=C(N)N1CC2C3CCC(C4CC34)C2C1 (centres unmarked) [compound 7, 4-Amidino-4-azatetracyclo[5.3.2.0^2,6.0^8.10]dodecane Hydrochloride]",inhibition of wt channel,A/M2 wt,potent low-micromolar inhibitors
same,EC50,A/PR/8/34 (A/H1N1); [2],> 100 µM
same,EC50,A/PR/8/34 (A/H1N1); [1],> 100 µM
same,cytotoxicity MCC,MDCK cells,100 µM
"C1=CC2C3CC3C1C1CN(C3CCNCC3)CC21.Cl (centres unmarked) [compound 8, 4-(4-Piperidinyl)-4-azatetracyclo[5.3.2.0^2,6.0^8.10]dodec-11-ene Dihydrochloride]",activity on A/M2 channels,A/M2 wt,did not display any activity
same,EC50,A/PR/8/34 (A/H1N1); [2],≤ 0.8 µM
same,EC50,A/PR/8/34 (A/H1N1); [1],< 0.8 µM
same,cytotoxicity MCC,MDCK cells,100 µM
"C1CC(N2CC3C4CCC(C5CC45)C3C2)CCN1.Cl (centres unmarked) [compound 9, 4-(4-Piperidinyl)-4-azatetracyclo[5.3.2.0^2,6.0^8.10]dodecane Dihydrochloride]",activity on A/M2 channels,A/M2 wt,did not display any activity
same,EC50,A/PR/8/34 (A/H1N1); [2],> 100 µM
same,EC50,A/PR/8/34 (A/H1N1); [1],> 100 µM
same,cytotoxicity MCC,MDCK cells,20 µM
"C1=CC2C1C1C=CC2C2CNCC12.Cl (centres unmarked) [compound 11, 4-Azatetracyclo[5.4.2.0^2,6.0^8.11]trideca-9,12-diene Hydrochloride]",inhibition of wt channel,A/M2 wt,potent low-micromolar inhibitors
same,EC50,A/PR/8/34 (A/H1N1); [1],< 0.8 µM
same,inhibition of plaque formation,A/HK/7/87,visible inhibition of plaque formation
"C1CC2C1C1CCC2C2CNCC12.Cl (centres unmarked) [compound 12, 4-Azatetracyclo[5.4.2.0^2,6.0^8.11]tridecane Hydrochloride]",inhibition of wt channel,A/M2 wt,potent low-micromolar inhibitors
same,EC50,A/PR/8/34 (A/H1N1); [2],> 100 µM
same,EC50,A/PR/8/34 (A/H1N1); [1],> 100 µM
same,reduction in plaque size or number,A/HK/7/87,clear
same,concentration at which visibly toxic,MDCK cells,2000 to 8000 nM
"Cl.N=C(N)N1CC2C3C=CC(C4C=CC43)C2C1 (centres unmarked) [compound 13, 4-Amidino-4-azatetracyclo[5.4.2.0^2,6.0^8.11]trideca-9,12-diene Hydrochloride]",inhibition of wt channel,A/M2 wt,potent low-micromolar inhibitors
same,EC50,A/PR/8/34 (A/H1N1); [2],> 100 µM
same,EC50,A/PR/8/34 (A/H1N1); [1],> 100 µM
same,inhibition of plaque formation,A/HK/7/87,visible inhibition of plaque formation
same,cytotoxicity MCC,MDCK cells,20 µM
"Cl.N=C(N)N1CC2C3CCC(C4CCC43)C2C1 (centres unmarked) [compound 14, 4-Amidino-4-azatetracyclo[5.4.2.0^2,6.0^8.11]tridecane Hydrochloride]",inhibition of wt channel,A/M2 wt,potent low-micromolar inhibitors
same,EC50,A/PR/8/34 (A/H1N1); [2],> 100 µM
same,EC50,A/PR/8/34 (A/H1N1); [1],> 100 µM
same,reduction in plaque size or number,A/HK/7/87,modest
same,concentration at which visibly toxic,MDCK cells,2000 to 8000 nM
same,cytotoxicity MCC,MDCK cells,4 µM
"CC12CC34CNCC35CC1(C)C(C)(C5)C2(C)C4.Cl (centres unmarked) [compound 18, 7,8,9,10-Tetramethyl-3-azapentacyclo[7.2.1.1^5,8.0^1,5.0^7,10]tridecane Hydrochloride]",inhibition of plaque formation,A/HK/7/87,visible inhibition of plaque formation
same,cytotoxicity MCC,MDCK cells,100 µM
"CC12CC34CN(C(=N)N)CC35CC1(C)C(C)(C5)C2(C)C4.Cl (centres unmarked) [compound 19, 3-Amidino-7,8,9,10-tetramethyl-3-azapentacyclo[7.2.1.1^5,8.0^1,5.0^7,10]tridecane Hydrochloride]",EC50,A/PR/8/34 (A/H1N1); [2],> 100 µM
same,EC50,A/PR/8/34 (A/H1N1); [1],> 100 µM
same,cytotoxicity MCC,MDCK cells,≥4 µM
